Molecular target: T1, KRAS G12C (Homo sapiens, UniProt P01116, G12C)
T1 construct: expressed in transfected cells; host or cells: Ras Initiative (RI) KRAS G12C cells
Test: phospho-ERK HTRF assay in Ras Initiative (RI) KRAS G12C cells
Assay type: cell-based
Details: phospho-ERK1/2 HTRF, 11-point dose response from 2,500 nM, treatment for either 4 hours or 16 hours, read-out: pERK (RI)
Experimental: Inhibition of KRAS G12C-Mediates Phospho-ERK1/2 Inhibition by Compounds of Formula I
This Example illustrates that various compounds of the present disclosure inhibit KRAS G12C thereby mediating the downstream inhibition of phospho-ERK1/2.
KRAS G12C mutant cell lines, NCI H358 (ATCC, CRL-5807), and Ras Initiative (R1) KRAS G12C were cultured according to published protocols and maintained at 37° C. in 5% CO2. The phospho-ERK HTRF assay was executed following provider's protocol (CisBio #64AERPEH). NCI-H358 or RI KRAS G12C cells were plated at a density of 50,000 cells per well in a 96-well plate (Corning #3903) in respective medias (for NCI-H358, RPMI+10% FBS+1% Pen/Strep, and for RI KRAS G12C, DMEM+10% FBS+1% Pen/Strep+4 ug/ml Blasticidin) and maintained at 37° C. in 5% CO2. Cells were allowed to adhere overnight and treated the following day with a Tecan D300e Digital Dispenser (Tecan Group Ltd., Switzerland) using an 11-point dose response starting at 2,500 nM of exemplified compounds followed by sequential 1:3 dilutions for either 4 hours or 16 hours. Following compound treatment, the cells were washed once with ice-cold PBS. Cells were lysed by adding 50 μl of lysis buffer (1×) supplemented with 1× Pierce Halt Protease and Phosphatase inhibitor and incubated for 30 minutes at 4° C. with shaking. After lysis, 16 μL of cell lysate from the 96-well cell-culture plate was transferred to a 384-well plate (Perkin Elmer #6007290). The premixed antibody solution was prepared by mixing (vol/vol) advanced phospho-ERK1/2 d2 antibody and advanced phospho-ERK1/2 Eu Cryptate antibody. The premixed antibody solution ([…]) was added to the detection plate containing cell lysate. The detection plate was incubated overnight at 4° C., the HTRF signal was read the next day by using either a Spectramax M5 or Spectramax i3 microplate reader (Molecular Devices, San Jose, CA, USA), and data was processed according to manufacturer's protocol.
Compounds prepared according to the preceding procedures and characterized for inhibition of p-ERK according to the protocol provided herein are summarized in Table 3: […]

T1 sequence (P01116 1-188 isoform P01116-2 G12C): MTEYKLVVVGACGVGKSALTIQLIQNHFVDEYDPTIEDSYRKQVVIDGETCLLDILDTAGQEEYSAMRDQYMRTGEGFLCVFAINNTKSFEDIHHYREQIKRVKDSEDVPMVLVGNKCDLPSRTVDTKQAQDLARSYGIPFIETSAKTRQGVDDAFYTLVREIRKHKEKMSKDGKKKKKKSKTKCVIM

Row | Structure (SMILES) | IC50
1 | C=CC(=O)N1[C@H](C)CN(c2nc(=O)n3c4c(c(-c5cc(Br)c(F)cc5F)c(C(F)(F)F)cc24)SC[C@@H](c2ccncc2)C3)C[C@@H]1C [Example 102, (3S)-8-((3S,5R)-4-acryloyl-3,5-dimethylpiperazin-1-yl)-11-(5-bromo-2,4-difluorophenyl)-3-(pyridin-4-yl)-10-(trifluoromethyl)-3,4-dihydro-2H,6H-[1,4]thiazepino[2,3,4-ij]quinazolin-6-one] | 0.5 to 2 nM
2 | C=CC(=O)N1[C@H](C)CN(c2nc(=O)n3c4c(c(-c5cc(Br)c(F)cc5F)c(C(F)(F)F)cc24)SC[C@@H](c2ccccn2)C3)C[C@@H]1C (single isomer, unassigned) [Example 107B] | 0.5 to 2 nM

— patent US20250313577A1, “TRICYCLIC PYRIDONES AND PYRIMIDONES” (ERASCA, INC, priority 2022, published 2025)
